# Earlier results as cited in patent publication US20250228849A1, “FORMULATION AND MANUFACTURING PROCESS OF LIQUID FORMULATION OF RILPIVIRINE” (Aptorum Therapeutics Limited, priority 2024, published 2025).
# Read-outs that look alike come from different tables or passages of the source.
# Tests used:
# [1] = hydrochloride salt form
# [2] = pyrimidine nitrogen
SMILES,BCS class [1],pKa [2],solubility (in DMSO),solubility (in ethanol),solubility (in methanol),solubility (in water)
"Cc1cc(C=CC#N)cc(C)c1Nc1ccnc(Nc2ccc(C#N)cc2)n1.Cl [Rilpivirine hydrochloride, 4-[[4-[[4-(2-cyanovinyl)-2,6-dimethylphenyl]amino]pyrimidin-2-yl]amino]benzonitrile hydrochloride]",BCS Class II,approximately 5.6,moderately soluble,moderately soluble,moderately soluble,merely sparing solubility
Cc1cc(/C=C/C#N)cc(C)c1Nc1ccnc(Nc2ccc(C#N)cc2)n1 [rilpivirine],–,–,–,–,–,low aqueous solubility
